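Cultured in 96-well plates, cells were exposed to test compound for 48 hours across five concentrations. Here, GI50 denotes the concentration required for 50% inhibition of growth. TGI denotes the concentration required for complete inhibition of growth.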
Assays:
Experiment in all cases: DTP human tumour cell line panel, 48 h
T-47D breast = tested on: T-47D breast
K-562 leukemia = tested on: K-562 leukemia
M14 melanoma = tested on: M14 melanoma
HS 578T breast = tested on: HS 578T breast
HOP-92 NSCLC = tested on: HOP-92 NSCLC
LOX IMVI melanoma = tested on: LOX IMVI melanoma
KM12 colon = tested on: KM12 colon
786-0 renal = tested on: 786-0 renal
BT-549 breast = tested on: BT-549 breast
TK-10 renal = tested on: TK-10 renal
MCF7 breast = tested on: MCF7 breast
SW-620 colon = tested on: SW-620 colon
UACC-257 melanoma = tested on: UACC-257 melanoma
SF-268 CNS = tested on: SF-268 CNS
MDA-MB-231 breast = tested on: MDA-MB-231 breast
NCI-H23 lung = tested on: NCI-H23 lung
OVCAR-3 ovarian = tested on: OVCAR-3 ovarian
PC-3 prostate = tested on: PC-3 prostate
NCI/ADR-RES ovarian = tested on: NCI/ADR-RES ovarian
A549 NSCLC = tested on: A549 NSCLC
NCI-H460 lung = tested on: NCI-H460 lung
NCI-H522 lung = tested on: NCI-H522 lung
HCT-116 colon = tested on: HCT-116 colon
NCI-H226 lung = tested on: NCI-H226 lung
CAKI-1 renal = tested on: CAKI-1 renal
SF-539 CNS = tested on: SF-539 CNS
HCC-2998 colon = tested on: HCC-2998 colon
ACHN renal = tested on: ACHN renal
SR leukemia = tested on: SR leukemia
U251 CNS = tested on: U251 CNS
SK-MEL-5 melanoma = tested on: SK-MEL-5 melanoma
SK-OV-3 ovarian = tested on: SK-OV-3 ovarian
MOLT-4 leukemia = tested on: MOLT-4 leukemia
OVCAR-4 ovarian = tested on: OVCAR-4 ovarian
MDA-MB-435 = tested on: MDA-MB-435
SK-MEL-2 melanoma = tested on: SK-MEL-2 melanoma
CCRF-CEM leukemia = tested on: CCRF-CEM leukemia
SK-MEL-28 melanoma = tested on: SK-MEL-28 melanoma
EKVX NSCLC = tested on: EKVX NSCLC
SNB-19 CNS = tested on: SNB-19 CNS
RPMI-8226 leukemia = tested on: RPMI-8226 leukemia
UACC-62 melanoma = tested on: UACC-62 melanoma
HOP-62 NSCLC = tested on: HOP-62 NSCLC
DU-145 prostate = tested on: DU-145 prostate
SN12C renal = tested on: SN12C renal
A498 renal = tested on: A498 renal
MALME-3M melanoma = tested on: MALME-3M melanoma
COLO 205 colon = tested on: COLO 205 colon
UO-31 renal = tested on: UO-31 renal
SF-295 CNS = tested on: SF-295 CNS
HL-60(TB) leukemia = tested on: HL-60(TB) leukemia
HCT-15 colon = tested on: HCT-15 colon
HT29 colon = tested on: HT29 colon
SNB-75 CNS = tested on: SNB-75 CNS
OVCAR-5 ovarian = tested on: OVCAR-5 ovarian
IGROV1 ovarian = tested on: IGROV1 ovarian
OVCAR-8 ovarian = tested on: OVCAR-8 ovarian
RXF 393 renal = tested on: RXF 393 renal

## CCOC(=O)CCSC1=CC(=O)c2nc3ccccc3c3ccnc1c23
T-47D breast
  GI50: 24.3 µM
  TGI: 76 µM
K-562 leukemia
  GI50: 26.9 µM
  TGI: > 100 µM
M14 melanoma
  GI50: 11.3 µM
  TGI: 30.1 µM
HS 578T breast
  GI50: 32.8 µM
  TGI: > 100 µM
HOP-92 NSCLC
  GI50: 25.8 µM
  TGI: 62.6 µM
LOX IMVI melanoma
  GI50: 27 µM
  TGI: > 100 µM
KM12 colon
  GI50: 15 µM
  TGI: 34.1 µM
786-0 renal
  GI50: 17.5 µM
  TGI: 39.3 µM
BT-549 breast
  GI50: 17.1 µM
  TGI: 34.3 µM
TK-10 renal
  GI50: 16.7 µM
  TGI: 32.4 µM
MCF7 breast
  GI50: 13.3 µM
  TGI: 38.3 µM
SW-620 colon
  GI50: 13.9 µM
  TGI: 41.6 µM
UACC-257 melanoma
  GI50: 14.6 µM
  TGI: 35.7 µM
SF-268 CNS
  GI50: 17.1 µM
  TGI: 39.4 µM
MDA-MB-231 breast
  GI50: 16.7 µM
  TGI: 41.6 µM
NCI-H23 lung
  GI50: 16.3 µM
  TGI: 43.3 µM
OVCAR-3 ovarian
  GI50: 12.6 µM
  TGI: 37 µM
PC-3 prostate
  GI50: 13.5 µM
  TGI: 38.7 µM
NCI/ADR-RES ovarian
  GI50: 32.8 µM
  TGI: > 100 µM
A549 NSCLC
  GI50: 18.3 µM
  TGI: 77.4 µM
NCI-H460 lung
  GI50: 13.4 µM
  TGI: 50.1 µM
NCI-H522 lung
  GI50: 17.4 µM
  TGI: 43 µM
HCT-116 colon
  GI50: 17.1 µM
  TGI: 76.6 µM
NCI-H226 lung
  GI50: 21.8 µM
  TGI: 73.8 µM
CAKI-1 renal
  GI50: 16.3 µM
  TGI: 31.9 µM
SF-539 CNS
  GI50: 18.2 µM
  TGI: 35.2 µM
HCC-2998 colon
  GI50: 19.2 µM
  TGI: 40.2 µM
ACHN renal
  GI50: 18.6 µM
  TGI: 42.5 µM
SR leukemia
  GI50: 7.59 µM
  TGI: > 100 µM
U251 CNS
  GI50: 29.8 µM
  TGI: > 100 µM
SK-MEL-5 melanoma
  GI50: 13.4 µM
  TGI: 30.4 µM
SK-OV-3 ovarian
  GI50: 29.3 µM
  TGI: 93.4 µM
MOLT-4 leukemia
  GI50: 7.31 µM
  TGI: > 100 µM
OVCAR-4 ovarian
  GI50: 15.2 µM
  TGI: 31.7 µM
MDA-MB-435
  GI50: 17.8 µM
  TGI: 37.7 µM
SK-MEL-2 melanoma
  GI50: 26.8 µM
  TGI: 72.8 µM
CCRF-CEM leukemia
  GI50: 3.44 µM
  TGI: > 100 µM
SK-MEL-28 melanoma
  GI50: 20.2 µM
  TGI: 41.1 µM
EKVX NSCLC
  GI50: 29.4 µM
  TGI: 76.4 µM
SNB-19 CNS
  GI50: 20.5 µM
  TGI: 51.6 µM
RPMI-8226 leukemia
  GI50: 9.55 µM
  TGI: > 100 µM
UACC-62 melanoma
  GI50: 15.8 µM
  TGI: 31.4 µM
HOP-62 NSCLC
  GI50: 16.4 µM
  TGI: 47.7 µM
DU-145 prostate
  GI50: 16 µM
  TGI: 33.2 µM
SN12C renal
  GI50: 15.7 µM
  TGI: 31.8 µM
A498 renal
  GI50: > 100 µM
  TGI: > 100 µM
MALME-3M melanoma
  GI50: 17.5 µM
  TGI: 35.4 µM
COLO 205 colon
  GI50: 24.9 µM
  TGI: > 100 µM
UO-31 renal
  GI50: 16.3 µM
  TGI: 34.9 µM
SF-295 CNS
  GI50: 17.1 µM
  TGI: 44.3 µM
HL-60(TB) leukemia
  GI50: 26.7 µM
  TGI: > 100 µM
HCT-15 colon
  GI50: 24.8 µM
  TGI: 92.9 µM
HT29 colon
  GI50: 26.2 µM
  TGI: 53.8 µM
SNB-75 CNS
  GI50: 39 µM
  TGI: > 100 µM
OVCAR-5 ovarian
  GI50: 27.5 µM
  TGI: 91 µM
IGROV1 ovarian
  GI50: 22.7 µM
  TGI: > 100 µM

## NCCCNc1nc2ccccc2c2c(=O)c3cc(F)cc(Cl)c3sc12
T-47D breast
  GI50: 1.4 µM
  TGI: 4.23 µM
K-562 leukemia
  GI50: 1.78 µM
  TGI: 4.1 µM
M14 melanoma
  GI50: 1.78 µM
  TGI: 3.28 µM
HS 578T breast
  GI50: 1.68 µM
  TGI: 3.62 µM
HOP-92 NSCLC
  GI50: 1.87 µM
  TGI: 11.8 µM
LOX IMVI melanoma
  GI50: 1.68 µM
  TGI: 3.14 µM
KM12 colon
  GI50: 1.72 µM
  TGI: 3.17 µM
786-0 renal
  GI50: 1.45 µM
  TGI: 2.9 µM
BT-549 breast
  GI50: 12.9 µM
  TGI: 26.7 µM
TK-10 renal
  GI50: 1.91 µM
  TGI: 3.39 µM
MCF7 breast
  GI50: 1.19 µM
  TGI: 2.68 µM
SW-620 colon
  GI50: 1.7 µM
  TGI: 3.28 µM
UACC-257 melanoma
  GI50: 3.29 µM
  TGI: 11.2 µM
SF-268 CNS
  GI50: 1.61 µM
  TGI: 3.29 µM
MDA-MB-231 breast
  GI50: 1.58 µM
  TGI: 3.07 µM
NCI-H23 lung
  GI50: 1.56 µM
  TGI: 3.07 µM
OVCAR-3 ovarian
  GI50: 1.78 µM
  TGI: 3.25 µM
PC-3 prostate
  GI50: 1.76 µM
  TGI: 3.35 µM
NCI/ADR-RES ovarian
  GI50: 1.73 µM
  TGI: 3.46 µM
A549 NSCLC
  GI50: 1.8 µM
  TGI: 3.55 µM
NCI-H460 lung
  GI50: 1.64 µM
  TGI: 3.11 µM
NCI-H522 lung
  GI50: 1.76 µM
  TGI: 3.68 µM
HCT-116 colon
  GI50: 1.72 µM
  TGI: 3.12 µM
NCI-H226 lung
  GI50: 6.37 µM
  TGI: 23.7 µM
OVCAR-8 ovarian
  GI50: 1.81 µM
  TGI: 3.83 µM
CAKI-1 renal
  GI50: 1.58 µM
  TGI: 2.95 µM
SF-539 CNS
  GI50: 1.83 µM
  TGI: 3.27 µM
HCC-2998 colon
  GI50: 1.79 µM
  TGI: 3.68 µM
ACHN renal
  GI50: 1.7 µM
  TGI: 3.07 µM
SR leukemia
  GI50: 1.19 µM
  TGI: 4.04 µM
U251 CNS
  GI50: 1.72 µM
  TGI: 3.37 µM
SK-MEL-5 melanoma
  GI50: 6.5 µM
  TGI: 20.3 µM
MOLT-4 leukemia
  GI50: 1.78 µM
  TGI: 3.77 µM
OVCAR-4 ovarian
  GI50: 1.82 µM
  TGI: 3.63 µM
MDA-MB-435
  GI50: 1.66 µM
  TGI: 3.04 µM
SK-MEL-2 melanoma
  GI50: 8.86 µM
  TGI: 24 µM
CCRF-CEM leukemia
  GI50: 1.95 µM
  TGI: 4.58 µM
SK-MEL-28 melanoma
  GI50: 1.94 µM
  TGI: 3.49 µM
EKVX NSCLC
  GI50: 1.56 µM
  TGI: 3.07 µM
SNB-19 CNS
  GI50: 1.77 µM
  TGI: 3.33 µM
RPMI-8226 leukemia
  GI50: 2.13 µM
  TGI: 5.03 µM
RXF 393 renal
  GI50: 1.62 µM
  TGI: 3.16 µM
UACC-62 melanoma
  GI50: 1.82 µM
  TGI: 3.52 µM
HOP-62 NSCLC
  GI50: 1.77 µM
  TGI: 3.9 µM
DU-145 prostate
  GI50: 1.72 µM
  TGI: 3.17 µM
SN12C renal
  GI50: 1.71 µM
  TGI: 3.24 µM
A498 renal
  GI50: 2.11 µM
  TGI: 7.04 µM
MALME-3M melanoma
  GI50: 1.68 µM
  TGI: 3.32 µM
COLO 205 colon
  GI50: 1.92 µM
  TGI: 4.41 µM
UO-31 renal
  GI50: 1.47 µM
  TGI: 2.84 µM
SF-295 CNS
  GI50: 1.75 µM
  TGI: 3.2 µM
HL-60(TB) leukemia
  GI50: 2.45 µM
  TGI: 6.58 µM
HCT-15 colon
  GI50: 1.57 µM
  TGI: 3.01 µM
HT29 colon
  GI50: 1.75 µM
  TGI: 3.29 µM
SNB-75 CNS
  GI50: 1.54 µM
  TGI: 2.96 µM
OVCAR-5 ovarian
  GI50: 1.65 µM
  TGI: 3.1 µM
IGROV1 ovarian
  GI50: 1.58 µM
  TGI: 3.12 µM
